“Also recorded” adds a separate entry of the source.
Key:
Assay type in all cases: cell-based
[1] = test system: HCT15 (human colon adenocarcinoma) cell line; assay: MTT assay for in vitro cytotoxicity, HCT15; conditions: for IC50: 24 h incubation with compound, three independent experiments, read-out: IC50 values against HCT15 cancer cell line; for antiproliferative potential for HCT15 cells, in words (relative to cisplatin / within the series): comparison of IC50 values
Description: (§1) The anticancer activity of complexes 1-5 was measured using a similar testing protocol reported earlier (M. Altaf et al., New J. Chem. 2015, 39, 377-385, incorporated herein by reference in its entirety) against a panel of representative human tumor cell lines, which included MCF7 (human breast cancer), HCT15 (human colon adenocarcinoma) and A549 (human lung carcinoma) cell lines. The cells were seeded at 3×10^3 cells/well in 100 μL DMEM containing 10% Fetal Bovine Serum (FBS) in 96-well tissue culture plate and incubated for 72 h at 37° C., 5% CO2 in air and 90% relative humidity in CO2 incubator. After incubation, 100 μL of 50, 25 and 12.5 μM solutions of cisplatin and complexes 1-5 prepared in Dulbecco's Modified Eagle's Medium (DMEM), were added to the cells and the cultures were incubated for 24 h. The medium of wells was discarded and 100 μL DMEM containing MTT (0.5 mg/mL) was added to the wells and incubated in CO2 incubator at 37° C. in dark for 4 h. After incubation, a purple colored formazan produced in the cells appeared as dark crystals in the bottom of the wells. The culture medium was discarded from each well carefully to prevent disruption of monolayer and 100 μL of dimethyl sulfoxide (DMSO) was added in each well. The solution in the wells was thoroughly mixed to dissolve the formazan crystals which produce a purple solution. The absorbance of the 96 well-plates was taken at 570 nm with Lab systems Multiskan EX ELISA reader against a reagent blank. The experimental results were presented as micro-mole concentration of 50% cell growth inhibition (IC50) of each compound. The MTT assay was performed in three independent experiments.
(§2) The synthesized gold(I)-phosphine complexes (1 and 2), gold(I)-dithiocarbamates (3-5) and cisplatin (standard classical anticancer drug) were tested for in vitro cytotoxicity against A549, MCF7 and HCT15 human cancer cell lines using MTT assay. The dose-dependent inhibition of cell proliferation was obtained by specific increase in concentration of tested compounds against fixed number of three human cancer cell lines. […] The highest activity of 4 might be attributed to the strong binding of dithiocarbamate sulfur to gold(I) that would prevent it to interact with plasma proteins in tissues, unlike cisplatin which was strongly bound to plasma proteins through sulfur atoms of thiols (S. Ahmad. Chem. Biodiv. 2010, 7, 543-566, incorporated herein by reference in its entirety).

[2] = test system: A549 (human lung carcinoma) cell line; assay: MTT assay for in vitro cytotoxicity, A549; conditions: for IC50: 24 h incubation with compound, three independent experiments, read-out: IC50 values against A549 cancer cell line; for activity against A549 cells, in words (relative to cisplatin / within the series): comparison of IC50 values
Description: as §1, §2

[3] = test system: MCF7 (human breast cancer) cell line; assay: MTT assay for in vitro cytotoxicity, MCF7; conditions: for IC50: 24 h incubation with compound, three independent experiments, read-out: IC50 values against MCF7 cancer cell line; for antiproliferative potential for MCF7 cells, in words (relative to cisplatin / within the series): comparison of IC50 values
Description: as §1, §2

Row | Molecule | IC50 [1] [µM] | IC50 [2] [µM] | IC50 [3] [µM] | antiproliferative potential for HCT15 cells, in words (relative to cisplatin / within the series) [1] | activity against A549 cells, in words (relative to cisplatin / within the series) [2] | antiproliferative potential for MCF7 cells, in words (relative to cisplatin / within the series) [3]
1 | [Au2(S2CN(CH7)2)2]n [Complex 5] | 69.1 ± 3.35 | 29.2 ± 1.81 | 76.3 ± 2.52 |  |  | 
2 | N.N.[Cl][Pt][Cl] [cisplatin, reference compound] | 32 ± 2.12 | 42.2 ± 2.01 | 23.2 ± 3.79 |  |  | 
3 | [Au2(S2CN(C2H5)2)2]n [Complex 4] | 38.9 ± 2.38 | 19.6 ± 0.85 | 48.8 ± 1.96 | comparable to cisplatin; also recorded: most active among the series | most active among the series | about half with respect to cisplatin; also recorded: most active among the series
4 | NCC[P+]([Au-2][P+](CCN)(c1ccccc1)c1ccccc1)(c1ccccc1)c1ccccc1 [Complex 2, [Au(AEP)2]Cl] |  |  |  | comparable to cisplatin |  | about half with respect to cisplatin
5 | [Au2(S2CN(CH3)2)2]n [Complex 3] | 257 ± 3.39 | 304 ± 5.9 | 139 ± 4.51 | least effective | least effective | least effective
